Test [1] addresses T1, bovine serum amine oxidase (BSAO) (Bos taurus, UniProt Q29437).
T1 sequence (Q29437 17-762): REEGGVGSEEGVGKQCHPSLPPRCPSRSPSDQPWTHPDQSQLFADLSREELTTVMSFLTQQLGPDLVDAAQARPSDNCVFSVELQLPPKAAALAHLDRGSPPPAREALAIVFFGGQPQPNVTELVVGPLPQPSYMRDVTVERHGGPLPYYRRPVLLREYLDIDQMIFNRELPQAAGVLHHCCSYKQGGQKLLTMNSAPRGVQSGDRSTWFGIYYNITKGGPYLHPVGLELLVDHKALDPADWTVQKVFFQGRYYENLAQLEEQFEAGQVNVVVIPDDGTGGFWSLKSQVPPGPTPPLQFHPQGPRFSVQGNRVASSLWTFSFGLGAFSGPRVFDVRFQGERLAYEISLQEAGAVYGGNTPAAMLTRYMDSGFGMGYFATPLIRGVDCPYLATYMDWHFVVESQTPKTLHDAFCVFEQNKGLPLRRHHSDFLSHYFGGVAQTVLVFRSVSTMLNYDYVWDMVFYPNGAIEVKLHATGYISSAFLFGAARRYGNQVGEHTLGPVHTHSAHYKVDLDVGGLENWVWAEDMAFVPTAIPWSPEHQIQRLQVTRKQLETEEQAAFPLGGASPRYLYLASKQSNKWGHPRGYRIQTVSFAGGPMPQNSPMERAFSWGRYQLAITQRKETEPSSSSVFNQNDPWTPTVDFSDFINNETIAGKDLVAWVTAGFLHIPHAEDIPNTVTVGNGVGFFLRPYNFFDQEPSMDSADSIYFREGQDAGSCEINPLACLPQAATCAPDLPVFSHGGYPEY
The test can be described thus: DCHBS/AAP peroxide-coupled kinetic assay with spermidine as substrate, Morrison tight-binding fit. Type of test: biochemical. Details: BSAO purified from bovine blood.

Test [2] addresses T1, bovine serum amine oxidase (BSAO). Description: spectrophotometric benzaldehyde formation at […] nm. Type of test: biochemical. Details: BSAO purified from bovine blood; also decomplemented FBS.

The text below walks through data of article PMC12802350, “Opposite effects of spermidine and GC7 in cell culture are dictated by distinct molecular targets” (Biochemical Journal, 2025).

One may read the Ki as the dissociation constant of the complex between target and ligand, obtained from inhibition or displacement. A low value points to tighter binding. `N=C(N)NCCCCCCCN` [GC7]: the Ki in test [1] stood at 308 nM.
Regarding `NCc1ccccc1` [benzylamine], in test [2], the “spectrophotometric benzaldehyde formation at 250 nm” value is “BSAO and decomplemented FBS activities were determined spectrophotometrically as the amount of benzaldehyde formed per min (μmol/min) from benzylamine”.
